These results are taken from patent US8377913B2, “Vitamin D receptor activators and methods of making” (AbbVie Inc., priority 2007, dated 2013).

Data set [1] relates to Human promyelocytic leukemia (HL60) cells. Kind of data set: HL-60 Differentiation. It is filed as cell-based. Conditions: HL-60, 96 h, four days incubation, NBT, absorbance 570 nm. The protocol: Human promyelocytic leukemia (HL60) cells were obtained from the American Type Culture Collection (ATCC Cat. # CCL-240, Manassas, Va.). Cells were maintained in RPMI 1640 medium (commercially available from Invitrogen, Carlsbad, Calif.) containing 10% fetal bovine serum (commercially available from Invitrogen, Carlsbad, Calif.) at 37° C. with 5% CO2. Cells were passaged weekly and were not allowed to become >90% confluent. For the assay, cells were plated at 5×10^5 cells per well in 200 uL media. Test compounds were diluted in media in concentrations between 10^−6-10^−10 M and then added to the appropriate wells. Cells were then incubated for four days at 37° C. in 5% CO2 atmosphere. After incubation, media was aspirated from each well and 75 uL of NBT solution (nitroblue tetrazolinium: 200 ng/mL PMA (phorbol 12-myrystate 13-acetate) and 2 mg/ml NBT (nitroblue tetrazolium) in distilled H2O) was added to each well followed by further incubation for 2 hours at 37° C. Following incubation, 150 uL lysis buffer (225 mL dimethylformamide, 67.5 g SDS). PMA stock solution (2 mg/ml in ethanol) was added to each well and the plate was allowed to sit at room temperature for 4 hours. HL-60 cell differentiation was assayed, Effect of each compound on cell growth was examined as a function of time; absorbance in each well was measured at 570 nm.

Data set [2] deals with Renin mRNA in As4.1 cells. The experiment in a line: Renin mRNA in As4.1 cells transfected with pcDNA-hVDR (real-time RT-PCR). The class given is cell-based. The protocol:
As4.1 cells (ATCC, Manassas, Va.) were cultured in Dulbecco's Modified Eagle Medium DMEM (commercially available from Invitrogen, Carlsbad, Calif.) with 10% fetal bovine serum at 37° C. in a humidified 5% CO2-95% air atmosphere. C3;ells were transfected with the pcDNA-hVDR plasmid (provided by Yan Chun Li, University of Chicago) by LIPOFECTAMINE™ 2000 (Invitrogen, Carlsbad, Calif.). siRNA was transfected with the pcDNA-hVDR plasmid by LIPOFECTAMINE™ 2000 according to the manufacturer's protocol. Twenty-four hours after transfection, cells were treated with test agents.
Real-time reverse transcription-PCR was performed with a MyiQ Real-time PCR Detection System (commercially available from BioRad, Hercules, Calif.). […] TaqMan™ probes that were 5′ labeled with the reporter 6-carboxyfluorescein (FAM) and 3′ labeled with the quencher tetramethylrhodamine (TAMRA) were used and the primer and probe sets were obtained from Applied Biosystems (Foster City, Calif.). Temperature conditions consisted of a step of 5 minutes at 95° C., followed by 45 cycles of 60° C. for 1 minute and 95° C. for 15 seconds. Data was collected during each extension phase of the PCR reaction and analyzed with the accompanying software package (BioRad, Hercules, Calif.). Threshold cycles were determined for each gene.
In general terms: Real-time PCR tracks product formation cycle by cycle.

Data set [3] relates to Thrombospondin mRNA in human coronary artery smooth muscle cells (CASMC). The experiment in a line: Thrombospondin mRNA in CASMC. It is filed as cell-based. The note with it: Homo sapiens. The protocol: (§1) Primary culture of human coronary artery smooth muscle cells (CASMC) (commercially available from Cambrex, Walkersville, Md.) were grown in smooth muscle growth medium SmGM-2 (commercially available from Lonza Bioscience) containing 5.5 mM glucose, 5% FBS, 50 μg/ml gentamicin, 50 ng/ml amphotericin-B, 5 μg/ml insulin, 2 ng/ml human recombinant fibroblast growth factor (hFGF), and 0.5 ng/ml human recombinant epidermal growth factor (hEGF) at 37° C. in a humidified 5% CO2-95% air atmosphere. Cells were grown to >80% confluence and used within five passages.
(§2) Real-time reverse transcription-PCR was performed with a MyiQ Real-Time PCR Detection System (BioRad, Hercules, Calif.). Each sample has a final volume of 25 μl containing 100 ng of cDNA, […] each of the forward and reverse PCR primers and […] of the TaqMan™ probe for the gene of interest (Applied Biosystems, Foster City, Calif.). Temperature conditions consisted of a step of 5 minutes at 95° C., followed by 40 cycles of 60° C. for 1 minute and 95° C. for 15 seconds. Data was collected during each extension phase of the PCR reaction and analyzed with the software package (BioRad, Hercules, Calif.). Threshold cycles were determined for each gene. […]

The test system of data set [4] is Thrombomodulin mRNA in human coronary artery smooth muscle cells (CASMC). Kind of data set: Thrombomodulin mRNA in CASMC. The note with it: for EC50: Homo sapiens. It is filed as cell-based. The protocol:
as §1, §2

Data set [5] relates to VDR (VDRE-luciferase-reporter construct). The experiment in a line: VDRE Reporter Gene Assay in HEK cells with stable expression of VDR. The class given is cell-based. The note with it: Homo sapiens, HEK293, 24 hours. Here is the method: Compound activity was also assessed by looking at a Vitamin D Response Element (VDRE) reporter gene assay, Human Embryonic Kidney cells (HEK cells) with a stable expression of VDR were cultured in 96-well plates at ˜4×10^5 cells/mL (100 μL/well) in DMEM medium containing 10% fetal calf serum. Cells were transfected with 0.2 μg per well of a VDRE-luciferase-reporter construct (from Y. Li, University of Chicago) and then treated with test agents at indicated concentrations for 24 hours. The luciferase activity was then measured following the manufacturer's instructions (Promega, Madison, Wis.).
(Reporter assays use an easily measured gene product as a stand-in for the process of interest.)

In data set [6] the test system is PAI-1 mRNA in human coronary artery smooth muscle cells (CASMC). Kind of data set: PAI-1 mRNA in CASMC. It is filed as cell-based. Conditions: Homo sapiens. The protocol: as §1, §2
In data set [7] the target is T1, recombinant full-length human Vitamin D nuclear receptor (Homo sapiens, UniProt P11473).
T1 sequence (P11473 1-427): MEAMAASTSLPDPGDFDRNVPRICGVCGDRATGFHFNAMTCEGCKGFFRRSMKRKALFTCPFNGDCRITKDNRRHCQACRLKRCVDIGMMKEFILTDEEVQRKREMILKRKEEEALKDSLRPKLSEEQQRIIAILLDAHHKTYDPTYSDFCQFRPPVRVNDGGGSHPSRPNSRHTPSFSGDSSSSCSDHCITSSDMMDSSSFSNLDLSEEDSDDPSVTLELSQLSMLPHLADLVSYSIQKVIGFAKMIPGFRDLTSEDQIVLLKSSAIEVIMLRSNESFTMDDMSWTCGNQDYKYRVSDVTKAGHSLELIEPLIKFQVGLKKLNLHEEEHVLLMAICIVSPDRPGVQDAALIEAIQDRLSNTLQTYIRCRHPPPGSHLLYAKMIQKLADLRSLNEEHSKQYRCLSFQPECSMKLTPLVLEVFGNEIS
The experiment in a line: biochemical.
Method: In vitro binding of selected compounds according to the invention to VDR was assessed using the following procedure. […] Each test compound was then serially diluted in binding buffer to concentrations appropriate for the assay, as one skilled in the art can determine.
Final assay volume was 100 uL. The filled plate was incubated overnight at 4° C. with gentle shaking. After 18 hours of incubation, 20 uL of wheat germ agglutinin-coated yttrium silicate scintillation proximity assay (SPA) beads (commercially available from Amersham Biosciences, Piscataway, N.J.; Part # RPNQ0270) resuspended in binding buffer was added to each well (200 ug/well) and the plate was incubated at room temperature for 2 hours with gentle shaking.

Data set [8] concerns Male, C57BL6, mice. The experiment in a line: Normal Mouse Calcemia Model. It is filed as in vivo. The note with it: s.c. once daily for 3 days, dose giving 1 mg/dL change in total Ca. Here is the method: Male, C57BL6, mice were obtained from Jackson Laboratories. The mice were habituated for four days while maintained on a normal diet (D10001, Research Diets Inc.). Treatment was initiated with vehicle (20% ethanol/30% propylene glycol/50% water, 0.05 mL, s.c.) or test agent administered over a three log dose range. The animals were dosed once daily for 3 days. Twenty-four hours after the last dose, animals were anesthetized with ketamine/xylazine (100/18 mg/kg) and bled by cardiac puncture for measurement of PTH and other end points.
Measurement of PTH and minerals: Calcium (Ca), serum phosphorus (Pi), creatinine and BUN were measured from serum using an Abbott Aeroset® (Abbott Laboratories, Abbott Park, Ill.). Blood ionized calcium (iCa) was determined using the i-STAT® system (Abbott Laboratories, East Windsor, N.J.). Serum PTH was measured using a mouse parathyroid hormone (PTH) EIA kit obtained from ALPCO/Immutopics, Inc. (Windham, N.H.). Selected data is shown is Table 6. The graphs in FIG. 4 give an indication of dose response. Notable is that Example 1 produced an approximately 30% reduction in PTH over at least a three log dose range without a concomitant elevation of serum calcium of greater than 1 mg/dL.
Data analysis: Mean±standard error of the mean was calculated for each group. One way ANOVA followed by a Dunnett's test was used to assess differences between vehicle and drug-treated groups. *p<0.05=significance.

The EC50 is the concentration at which the effect is half-maximal. High values mean a less potent agent, low ones a more potent agent. Usually IC50 stands for the concentration that gives 50% inhibition. In the case of `C=C1[C@H](O)CC(=C/C=C2\CCC[C@]3(C)[C@@H]([C@H](C)CO)CC[C@@H]23)C[C@H]1O` [Example 2, (1R,3R,7E,17β)-17-[(1S)-2-hydroxy-1-methylethyl]-2-methylene-9,10-secoestra-5,7-diene-1,3-diol], the EC50 in data set [1] was determined as 162 nM; in data set [5] it was 52.7 nM. The half-maximal inhibitory concentration (IC50) stood at 0.7 nM in data set [2], 3.7 nM in data set [3], 0.03 nM in data set [6] and 890 nM in data set [7]. Moreover, in data set [4], the “Thrombomodulin mRNA in CASMC EC50” value was “inactive”.
Take `C[C@H](/C=C/[C@H](C)C(C)(C)O)[C@H]1CC[C@H]2/C(=C/C=C3C[C@@H](O)C[C@H](O)C3)CCC[C@]12C` [Paricalcitol, paricalcitol, reference compound]: the 50% effective concentration (EC50) in data set [1] stood at 16 nM; in data set [4] it was 1.5 nM; in data set [5], 5.9 nM. Besides, the concentration for half-maximal inhibition (IC50) in data set [2] came out at 0.8 nM; in data set [3], 0.2 nM; in data set [6], 0.5 nM; in data set [7] it was 14.6 nM. Also, the “1 mg/dL Δ total Ca” value in data set [8] is 0.286 µg/kg.
`C=C1[C@H](O)CC(=C/C=C2\CCC[C@]3(C)[C@@H]([C@H](C)COC(=O)NC(C)(C)C)CC[C@@H]23)C[C@H]1O` [Example 5, (2S)-2-[(1R,3R,7E,17β)-1,3-dihydroxy-2-methylene-9,10-secoestra-5,7-dien-17-yl]propyl tert-butylcarbamate]: the IC50 in data set [2] was determined as 2.4 nM; in data set [3], 0.001 nM; in data set [6], 0.002 nM; in data set [7], 0.1 nM. Moreover, the results for the EC50 in data set [4] and in data set [5] were 5.6 nM and 0.3 nM, respectively.
`C=C1[C@H](O)CC(=C/C=C2\CCC[C@]3(C)[C@@H]([C@@H](C)COC(=O)C(C)(C)C)CC[C@@H]23)C[C@H]1O` [Example 3, (2R)-2-[(1R,3R,7E,17β)-1,3-dihydroxy-2-methylene-9,10-secoestra-5,7-dien-17-yl]propyl pivalate]: the half-maximal effective concentration (EC50) in data set [1] is 3.9 nM; in data set [4], 39.9 nM; in data set [5], 0.9 nM. The IC50 was determined as 0.4 nM in data set [2], 0.002 nM in data set [3], 0.003 nM in data set [6] and 1330 nM in data set [7].
Regarding `C=C1[C@H](O)CC(=C/C=C2\CCC[C@]3(C)[C@@H]([C@H](C)COC(=O)C(C)(C)CC)CC[C@@H]23)C[C@H]1O` [Example 4, (2S)-2-[(1R,3R,7E,17β)-1,3-dihydroxy-2-methylene-9,10-secoestra-5,7-dien-17-yl]propyl 2,2-dimethylbutanoate], the half-maximal effective concentration (EC50) amounted to 0.7 nM in data set [1], 84.7 nM in data set [4] and 1.3 nM in data set [5]. Also, the IC50 was found to be 3.4 nM in data set [2], 0.001 nM in data set [3], 0.02 nM in data set [6] and 62.4 nM in data set [7].
For `C=C1/C(=C\C=C2/CCC[C@]3(C)[C@@H]([C@H](C)CCCC(C)(C)O)CC[C@@H]23)C[C@@H](O)C[C@@H]1O` [Calcitriol, 1,25-dihydroxyvitamin D3, reference compound], the EC50 was 7 nM in data set [1] and 1.6 nM in data set [4]. Besides, the IC50 is 1.6 nM in data set [2], 19.1 nM in data set [3] and 0.8 nM in data set [6]. Also, the “1 mg/dL Δ total Ca” value in data set [8] was 0.026 µg/kg.
